Active and inactive are the calls of the source. No cut-off for these calls is given here. *1 amine or outer side, *2 acyl side, *3 side chain or, on linkers, in order; H or OH if unused. Where a SMILES comes first, the peptide text is derived from it. Bridges are numbered along the chain shown (N, C = ends). Roman numbers before positions name the chains, in order. The star is where a group is joined. Hexamethylenediamine = C(CCCN[*:2])CCN[*:1]; Cyclenylacetyl = O=C(CN1CCNCCNCCNCC1)*; X1 = O=c1[nH]cc(C*)c(=O)[nH]1
Experiments:
Assay type in all cases: nucleic-acid assay
Nucleic Acid [1] = test: Induction of Escherichia coli pUC19 DNA cleavage assessed as conversion of supercoiled plasmid DNA to nicked circular DNA at 10 uM after 48 hrs by agarose gel electrophoresis
Nucleic Acid [2] = test: Induction of [5'-32P]-end labeled single stranded 26 mer DNA cleavage assessed as formation of ladder of DNA fragment at 10 to 100 uM after 48 hrs at pH 7.0 and < = 25 degC by agarose gel electrophoresis-based phosphorimager analysis
Nucleic Acid [3] = test: Induction of [5'-32P]-end labeled single stranded 24 mer DNA cleavage assessed as formation of ladder of DNA fragment at 10 to 100 uM after 48 hrs at pH 7.0 and 37 degC by agarose gel electrophoresis-based phosphorimager analysis
Nucleic Acid [4] = test: Induction of [5'-32P]-end labeled single stranded 24 mer DNA cleavage assessed as formation of ladder of DNA fragment at 10 to 100 uM after 48 hrs at pH 7.0 and < = 25 degC by agarose gel electrophoresis-based phosphorimager analysis
Nucleic Acid [5] = test: Induction of supercoiled Escherichia coli pUC19 DNA cleavage in HEPES buffer at pH 7.0 after 48 hrs by agarose gel electrophoresis in presence of 0.1 M tert-butyl alcohol
Nucleic Acid [6] = test: Induction of supercoiled Escherichia coli pUC19 DNA cleavage in HEPES buffer at pH 7.0 after 48 hrs by agarose gel electrophoresis in presence of 0.1 M NaN3
Nucleic Acid [7] = test: Induction of supercoiled Escherichia coli pUC19 DNA cleavage in HEPES buffer at pH 7.0 after 48 hrs by agarose gel electrophoresis in presence of 0.1 M DSMO
Nucleic Acid [8] = test: Induction of Escherichia coli pUC19 DNA cleavage assessed as conversion of supercoiled plasmid DNA to linear DNA at 10 uM after 48 hrs by agarose gel electrophoresis
Nucleic Acid [9] = test: Induction of Escherichia coli pUC19 DNA cleavage assessed as conversion of supercoiled plasmid DNA to nicked circular DNA at 10 uM after 48 hrs by agarose gel electrophoresis in presence of 1 mM EDTA
Nucleic Acid [10] = test: Induction of [5'-32P]-end labeled single stranded 26 mer DNA cleavage assessed as formation of ladder of DNA fragments in HEPES buffer at 10 to 100 uM after 48 hrs at pH 7.0 and 37 degC by agarose gel electrophoresis-based phosphorimager analysis
Nucleic Acid [11] = test: Binding affinity to calf thymus DNA assessed as change in melting temperature at compound/DNA ratio of 1:5; settings: Bos taurus
Nucleic Acid [12] = test: Binding affinity to calf thymus DNA assessed as change in melting temperature at compound/DNA ratio of 2:5; settings: Bos taurus
Nucleic Acid [13] = test: Induction of supercoiled Escherichia coli pUC19 DNA cleavage in HEPES buffer at pH 7.0 after 48 hrs by agarose gel electrophoresis in presence of 0.1 M potassium iodide
Nucleic Acid [14] = test: Induction of Escherichia coli pUC19 DNA cleavage assessed as conversion of supercoiled plasmid DNA to nicked circular DNA at 20 uM after 48 hrs by agarose gel electrophoresis
Nucleic Acid [15] = test: Binding affinity to calf thymus DNA at compound/DNA ratio 2:5; settings: Bos taurus

Structure (SMILES): CC(C)(C)OC(=O)N1CCN(CC(=O)NCC(=O)N[C@@H](CSCc2c[nH]c(=O)[nH]c2=O)C(=O)NCC(=O)N[C@@H](CSCc2c[nH]c(=O)[nH]c2=O)C(=O)NCCCCCCNC(=O)[C@H](CSCc2c[nH]c(=O)[nH]c2=O)NC(=O)CNC(=O)[C@H](CSCc2c[nH]c(=O)[nH]c2=O)NC(=O)CNC(=O)CN2CCN(C(=O)OC(C)(C)C)CCN(C(=O)OC(C)(C)C)CCN(C(=O)OC(C)(C)C)CC2)CCN(C(=O)OC(C)(C)C)CCN(C(=O)OC(C)(C)C)CC1
- Activity (Nucleic Acid [1]): Active

Structure (SMILES): O=C(CN1CCNCCNCCNCC1)NCC(=O)N[C@@H](CSCc1c[nH]c(=O)[nH]c1=O)C(=O)NCC(=O)N[C@@H](CSCc1c[nH]c(=O)[nH]c1=O)C(=O)NCCCCCCNC(=O)[C@H](CSCc1c[nH]c(=O)[nH]c1=O)NC(=O)CNC(=O)[C@H](CSCc1c[nH]c(=O)[nH]c1=O)NC(=O)CNC(=O)CN1CCNCCNCCNCC1 (I: Cyclenylacetyl-GC(X1)GC(X1) / II: Cyclenylacetyl-GC(X1)GC(X1); linker I:C-II:C via Hexamethylenediamine)
- Activity (Nucleic Acid [2]): inactive
- Activity (Nucleic Acid [3]): Active
- Activity (Nucleic Acid [4]): inactive
- Activity (Nucleic Acid [5]): Active
- Activity (Nucleic Acid [6]): inactive
- Activity (Nucleic Acid [7]): inactive
- Activity (Nucleic Acid [8]): Active
- Activity (Nucleic Acid [1]): Active
- Activity (Nucleic Acid [9]): Active
- Activity (Nucleic Acid [10]): Active
- ΔTm (Nucleic Acid [11]): 5.9 °C
- ΔTm (Nucleic Acid [12]): 2.3 °C
- Activity (Nucleic Acid [13]): Active

Structure (SMILES): C1CNCCNCCNCCN1
- Activity (Nucleic Acid [14]): inactive

Structure (SMILES): COC(=O)[C@H](CSCc1c[nH]c(=O)[nH]c1=O)NC(=O)CNC(=O)[C@H](CSCc1c[nH]c(=O)[nH]c1=O)NC(=O)CNC(=O)CN1CCNCCNCCNCC1 (Cyclenylacetyl-GC(X1)GC(X1)-OMe)
- Activity (Nucleic Acid [15]): Active
- Activity (Nucleic Acid [14]): inactive
- Activity (Nucleic Acid [1]): Active
- ΔTm (Nucleic Acid [11]): 1.1 °C
